Reference: patent US7741020B2, “Methods for detecting Lp-PLA2 activity and inhibition of Lp-PLA2 activity” (Glaxo Group Limited, priority 2004, dated 2010)
Several values for one entry are separate records, joined by “and”; a condition that tells them apart may be missing. Equal entries are not always repeated.

Tests used:
Lp-PLA2 [1] = molecular target: T1, Lp-PLA2 (Homo sapiens, UniProt Q13093); experiment: High throughput radiometric assay for Lp-PLA2 activity (3H-PAF); assay type: biochemical; settings: plasma of individual human subjects
T1 sequence (Q13093 22-441): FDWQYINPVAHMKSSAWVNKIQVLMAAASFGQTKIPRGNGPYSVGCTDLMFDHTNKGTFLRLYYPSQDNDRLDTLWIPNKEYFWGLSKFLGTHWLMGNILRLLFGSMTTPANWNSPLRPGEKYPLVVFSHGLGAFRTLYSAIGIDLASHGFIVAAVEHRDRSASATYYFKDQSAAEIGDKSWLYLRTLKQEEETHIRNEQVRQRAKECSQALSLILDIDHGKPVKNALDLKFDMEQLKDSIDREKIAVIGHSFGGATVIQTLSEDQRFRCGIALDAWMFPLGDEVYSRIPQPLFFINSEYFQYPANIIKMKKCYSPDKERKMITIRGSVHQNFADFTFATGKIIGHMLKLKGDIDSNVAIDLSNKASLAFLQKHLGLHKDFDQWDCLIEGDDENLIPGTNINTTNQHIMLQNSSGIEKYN
Description: (cat #6005162) Reagents • HEPES (4-(2-hydroxyethyl)-1-piperazineethane sulfonic acid) Sigma Chemical Co., St. Louis Mo. […] (Cat # E7889; 0.5 M) • ^3H-Platelet Activating Factor, 1-O-Hexadecyl-[acetyl-^3H(N)], (^3H-PAF)-NEN Life Science Products, Roxbury, Mass. (Cat # NET-910, supplied as an ethanol solution, typically 0.1 mCi/mL; 250 uCi) • C16-PAF, (1-hexadecyl-2-acetyl-sn-glycero-3-phosphocholine): Avanti Polar Lipids, Alabaster, Ala. […] (Cat # T9159) Assay Buffer • 100 mM Hepes, pH 7.4 • 150 mM NaCl • 5 mM EDTA • Store it at room temperature Procedures • 1. Prepare a ^3H-PAF working solution (for 100 reactions): • a) Aliquot 480 μl ^3H-PAF (10 μM=0.1 mCi/ml at 10.0 Ci/mmol) and 125.3 μl of [C16]PAF (5.0 mg/ml; MW: 524) to a tube; • b) Mix and air dry in the hood; • c) Resuspend the dried pellets in 12.0 ml of assay buffer giving working solutions of 100 μM PAF (i.e. ^3H-PAF at 0.4 μM and cold [C16]PAF at 99.6 μM); • 2. Aliquot 5 μL of assay buffer (for Total counts and Blanks; n=8) or plasma samples in duplicates into a 96-well plate; • 3. Equilibrate the plate to 21° C.; • 4. Add 100 μL of the ^3H-PAF solution to each well, mix and incubate the plate at 21° C. for 5 minutes; • 5. […]; • 6. Add 25 μL of ice-cold TCA solution (56%) to each well, mix and incubate the plate in a refrigerator for 15 minutes; • 7. Centrifuge the plate at 6,000 g for 15 minutes at 4° C.; • 8. […] Add 10 μL of ^3H-PAF working solution to 6 Total Counts wells; • 10. […] Cover the plate with a plate tape and vortex mix at max speed for 10 minutes; • 12. […] Count with a TopCount scintillation counter for 2 minutes each; and • 14.

Lp-PLA2 [2] = molecular target: T1, Lp-PLA2; experiment: Modified drug-sensitive colorimetric assay, plasma; assay type: biochemical; settings: plasma of individual human subjects
Description: Assay Procedure • 1. […] Use duplicates for each sample. • 4.
Pre-dose plasma samples for each subject on day 0 of the study were also available.

SMILES: COCCN1CCC(N(Cc2ccc(-c3ccc(C(F)(F)F)cc3)cc2)C(=O)Cn2c(SCc3cccc(F)c3F)cc(=O)c3ccccc32)CC1 [Formula I]
- % Inhibition Radiometric (Lp-PLA2 [1]; 50 mg, 0.5 hr after dosing): 22.34% and 17.17% and 25.59%
- Lp-PLA2 Activity Radiometric (Lp-PLA2 [1]; 50 mg, 0.5 hr after dosing): 65.24 nmol/min/mL and 50.18 nmol/min/mL and 78.40 nmol/min/mL and 22.46 nmol/min/mL and 104.52 nmol/min/mL
- % Inhibition Radiometric (Lp-PLA2 [1]; 50 mg, 1 hr after dosing): 77.76% and 60.11%
- Lp-PLA2 Activity Radiometric (Lp-PLA2 [1]; 50 mg, 1 hr after dosing): 15.85 nmol/min/mL and 26.80 nmol/min/mL and 18.68 nmol/min/mL and 10.60 nmol/min/mL and 30.87 nmol/min/mL
- Lp-PLA2 Activity Radiometric (Lp-PLA2 [1]; 50 mg, 2 hr after dosing): 10.00 nmol/min/mL
- Lp-PLA2 Activity Radiometric (Lp-PLA2 [1]; 50 mg, 4 hr after dosing): 10.02 nmol/min/mL and 20.76 nmol/min/mL and 14.37 nmol/min/mL and 11.47 nmol/min/mL
- % Inhibition Radiometric (Lp-PLA2 [1]; 50 mg, 5 hr after dosing): 86.07%
- % Inhibition Radiometric (Lp-PLA2 [1]; 120 mg, 0.5 hr after dosing): 64.75% and 81.63% and 44.97% and 33.96%
- Lp-PLA2 Activity Radiometric (Lp-PLA2 [1]; 120 mg, 0.5 hr after dosing): 35.83 nmol/min/mL and 25.97 nmol/min/mL and 16.07 nmol/min/mL and 39.68 nmol/min/mL and 58.09 nmol/min/mL
- % Inhibition Radiometric (Lp-PLA2 [1]; 120 mg, 1 hr after dosing): 88.66%
- Lp-PLA2 Activity Radiometric (Lp-PLA2 [1]; 120 mg, 1 hr after dosing): 10.00 nmol/min/mL
- Lp-PLA2 Activity Radiometric (Lp-PLA2 [1]; 120 mg, 2 hr after dosing): 10.00 nmol/min/mL
- Lp-PLA2 Activity Radiometric (Lp-PLA2 [1]; 120 mg, 3 hr after dosing): 14.09 nmol/min/mL and 12.80 nmol/min/mL and 10.00 nmol/min/mL (2×) and 21.08 nmol/min/mL
- % Inhibition Radiometric (Lp-PLA2 [1]; 120 mg, 4 hr after dosing): 90.91% and 72.94%
- Lp-PLA2 Activity Radiometric (Lp-PLA2 [1]; 120 mg, 4 hr after dosing): 14.00 nmol/min/mL and 10.00 nmol/min/mL (2×)
- % Inhibition Radiometric (Lp-PLA2 [1]; 120 mg, 5 hr after dosing): 91.73%
- Lp-PLA2 Activity Radiometric (Lp-PLA2 [1]; 120 mg, 5 hr after dosing): 14.05 nmol/min/mL and 11.69 nmol/min/mL and 10.00 nmol/min/mL (2×) and 20.24 nmol/min/mL
- Lp-PLA2 Activity Radiometric (Lp-PLA2 [1]; 120 mg, 6 hr after dosing): 10.00 nmol/min/mL
- Lp-PLA2 Activity Radiometric (Lp-PLA2 [1]; 120 mg, 9 hr after dosing): 21.11 nmol/min/mL and 18.51 nmol/min/mL and 14.41 nmol/min/mL and 32.48 nmol/min/mL and 11.21 nmol/min/mL
- Lp-PLA2 Activity Radiometric (Lp-PLA2 [1]; 120 mg, 12 hr after dosing): 24.22 nmol/min/mL and 21.27 nmol/min/mL and 16.97 nmol/min/mL and 34.26 nmol/min/mL and 15.69 nmol/min/mL
- % Inhibition Drug-Sensitive Colorimetric (Lp-PLA2 [2]; 50 mg, 0.5 hr after dosing): 16.91% and 18.69% and 26.95%
- Lp-PLA2 Activity Drug-Sensitive Colorimetric (Lp-PLA2 [2]; 50 mg, 0.5 hr after dosing): 89.99 nmol/min/mL and 69.79 nmol/min/mL and 81.70 nmol/min/mL and 32.96 nmol/min/mL and 141.14 nmol/min/mL
- Lp-PLA2 Activity Drug-Sensitive Colorimetric (Lp-PLA2 [2]; 50 mg, 1 hr after dosing): 17.15 nmol/min/mL and 39.10 nmol/min/mL and 24.96 nmol/min/mL and 22.46 nmol/min/mL and 37.07 nmol/min/mL
- % Inhibition Drug-Sensitive Colorimetric (Lp-PLA2 [2]; 50 mg, 4 hr after dosing): 85.71%
- Lp-PLA2 Activity Drug-Sensitive Colorimetric (Lp-PLA2 [2]; 50 mg, 5 hr after dosing): 20.74 nmol/min/mL and 31.77 nmol/min/mL and 16.58 nmol/min/mL and 15.83 nmol/min/mL and 18.35 nmol/min/mL
- Lp-PLA2 Activity Drug-Sensitive Colorimetric (Lp-PLA2 [2]; 50 mg, 6 hr after dosing): 23.71 nmol/min/mL and 66.08 nmol/min/mL and 21.01 nmol/min/mL and 25.84 nmol/min/mL and 25.12 nmol/min/mL
- % Inhibition Drug-Sensitive Colorimetric (Lp-PLA2 [2]; 50 mg, 12 hr after dosing): 60.73% and 36.04% and 55.61%
- Lp-PLA2 Activity Drug-Sensitive Colorimetric (Lp-PLA2 [2]; 50 mg, 12 hr after dosing): 34.83 nmol/min/mL and 76.84 nmol/min/mL and 111.00 nmol/min/mL and 53.72 nmol/min/mL and 44.60 nmol/min/mL
- % Inhibition Drug-Sensitive Colorimetric (Lp-PLA2 [2]; 120 mg, 0.5 hr after dosing): 88.89% and 85.22% and 45.29% and 41.39%
- Lp-PLA2 Activity Drug-Sensitive Colorimetric (Lp-PLA2 [2]; 120 mg, 0.5 hr after dosing): 31.08 nmol/min/mL and 20.14 nmol/min/mL and 19.87 nmol/min/mL and 63.95 nmol/min/mL and 64.40 nmol/min/mL
- % Inhibition Drug-Sensitive Colorimetric (Lp-PLA2 [2]; 120 mg, 1 hr after dosing): 88.85%
- Lp-PLA2 Activity Drug-Sensitive Colorimetric (Lp-PLA2 [2]; 120 mg, 1 hr after dosing): 19.69 nmol/min/mL and 23.29 nmol/min/mL and 14.99 nmol/min/mL and 30.22 nmol/min/mL and 18.74 nmol/min/mL
